US8906925B2, “Pyrido[4,3-B]indoles containing rigid moieties” (Medivation Technologies, Inc., priority 2008, dated 2014)
Read-outs that look alike come from different tables or passages of the source.

Columns and labels:
[1] = target: T1, human dopamine D2L receptor (Homo sapiens, UniProt P14416); experiment: Aequorin functional assay, dopamine D2L (CHO-K1); type: cell-based; design: host or cells: CHO-K1 co-expressing mitochondrial apoaequorin and Gα16; conditions: for inhibition at 0.005 µM / inhibition at […] / inhibition at 0.05 µM / inhibition at 0.5 µM / inhibition at 5 µM / inhibition at 15 µM: CHO-K1; for inhibition at 0.005 µM: Antagonist concentration 5 nM; for inhibition at 0.05 µM: Antagonist concentration 50 nM; for inhibition at 0.5 µM: Antagonist concentration 500 nM; for inhibition at 5 µM: Antagonist concentration 5000 nM; for inhibition at 15 µM: Antagonist concentration 15000 nM
From the text: (§1) To study the functional activity of compounds of the invention on the human recombinant dopamine D2L with Aequorin, GTPγS and cAMP functional assays and on the human recombinant serotonin 5-HT2A receptor with Aequorin, CHO-K1 cell lines expressing D2L or 5-HT2A recombinant receptor, mitochondrial apoaequorin and Gα16 were used for the Aequorin assay. CHO-K1 cell line expressing the recombinant D2L receptor was used for the cAMP assay and was amplified to prepare membranes used for the GTPγS assay.
(§2) Cells were incubated at room temperature for at least 4 h with Coelenterazine h (Molecular Probes). Dose response curves with reference compounds were performed before testing the compounds of the invention. D2L reference agonist and antagonist were quinpirol (Tocris, 1061) and haloperidol (Tocris, 0931), respectively. […] For agonist testing, 50 μL of cell suspension were injected on 50 μL of test compound or reference agonist plated in a 96-well plate. The resulting emission of light was recorded using the Hamamatsu Functional Drug Screening System 6000 (FDSS 6000). Following an incubation of 15 min after the first injection, 100 μL of reference agonist at a concentration corresponding to its EC80 was injected on the 100 μL of the mixture of cell suspension and test compound, for antagonist testing. The resulting emission of light was recorded using the same luminometer as for agonist testing. To standardize the emission of recorded light (determination of the “100% signal”) across plates and across different experiments, some of the wells contained 100 μM digitonin or a saturating concentration of ATP (20 μM). Plates also contained the reference agonist at a concentration equivalent to the EC100 and EC80 obtained during the test validation.

[2] = target: T1, human dopamine D2L receptor; experiment: GTPγS functional assay, dopamine D2L (CHO-K1 membrane extracts); type: biochemical; design: host or cells: CHO-K1 co-expressing mitochondrial apoaequorin and Gα16; conditions: for inhibition at 0.005 µM: antagonist concentration 5 nM; for inhibition at 0.05 µM: antagonist concentration 50 nM; for inhibition at 0.5 µM: antagonist concentration 500 nM; for inhibition at 5 µM: antagonist concentration 5000 nM; for inhibition at 15 µM: antagonist concentration 15000 nM
From the text: as §1
GTPγS Assay Procedure: Assay buffer [20 mM HEPES pH 7.4; 100 mM NaCl, 10 μg/mL saponin, 30 mM MgCl2]; Membranes [Recombinant CHO-K1-D2L membrane extracts thawed on ice and diluted in assay buffer to give 1 mg/mL (10 μg/10 μL) and kept on ice]; GDP [diluted in assay buffer to give […] final concentration]; Beads [PVT-WGA (Amersham, RPNQ0001), diluted in assay buffer at 25 mg/mL (0.25 mg/10 μL)]; GTPγ35S [(PerkinElmer NEG030X), diluted in assay buffer to give 0.1 nM final concentration]; Ligand [Quinpirol (Tocris, 1061) as reference agonist and haloperidol (Tocris, 0931) as reference antagonist, diluted in assay buffer]. Membranes were mixed with GDP (volume:volume) and incubated for at least 15 min on ice. In parallel, GTPγ[^35S] was mixed with the beads (volume:volume) just before starting the reaction. For agonist testing, the following reagents are successively added in the wells of an Optiplate (Perkin Elmer): 50 μL of test or reference ligand, 20 μL of the membranes:GDP mix, 10 μL of assay buffer and 20 μL of the GTPγ[^35S]:beads mix. For antagonist testing, the following reagents were successively added in the wells of an Optiplate (Perkin Elmer): 50 μL of test or reference ligand, 20 μL of the membranes:GDP mix, and then after an incubation of 15 min at room temperature, 10 μL of reference agonist at historical EC80 concentration and 20 μL of the GTPγ[^35S]:beads mix. The plates were covered with a top seal, mixed on an orbital shaker for 2 min, and then incubated for 1 h at room temperature. Then the plates were centrifuged for 10 min at 2000 rpm, incubated at room temperature 1 h and counted for 1 min/well with a Perkin Elmer TopCount reader. Compounds were tested for antagonist activity at the human dopamine D2L receptor (FAST-0101G) at the following nanomolar concentrations, in duplicate: Antagonist (nM): 5, 15, 50, 150, 500, 1500, 5000, 15000.

[3] = target: human recombinant serotonin 5-HT2A receptor (Homo sapiens, UniProt P28223); experiment: Aequorin functional assay, serotonin 5-HT2A (CHO-K1); type: cell-based; design: host or cells: CHO-K1 cells co-expressing mitochondrial apoaequorin and Gα16
From the text: as §1, §2

[4] = Antagonist concentration 150 nM
[5] = Antagonist concentration 1500 nM
[6] = antagonist concentration 150 nM
[7] = antagonist concentration 1500 nM
[8] = CHO-K1, read-out: 5-HT2A Antagonist % Inhibition (Aequorin)

T1 sequence (P14416 whole entry): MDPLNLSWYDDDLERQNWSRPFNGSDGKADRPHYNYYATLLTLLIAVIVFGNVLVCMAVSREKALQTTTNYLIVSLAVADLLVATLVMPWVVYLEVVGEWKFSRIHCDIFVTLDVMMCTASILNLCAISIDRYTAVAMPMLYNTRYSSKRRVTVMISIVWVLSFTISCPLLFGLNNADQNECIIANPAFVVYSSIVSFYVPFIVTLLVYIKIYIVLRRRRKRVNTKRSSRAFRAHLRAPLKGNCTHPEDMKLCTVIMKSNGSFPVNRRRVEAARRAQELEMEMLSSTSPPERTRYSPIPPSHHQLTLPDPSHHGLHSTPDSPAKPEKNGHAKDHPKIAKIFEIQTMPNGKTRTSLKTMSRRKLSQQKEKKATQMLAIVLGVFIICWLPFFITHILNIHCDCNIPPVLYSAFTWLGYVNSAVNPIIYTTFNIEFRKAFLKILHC
human recombinant serotonin 5-HT2A receptor, sequence (P28223 whole entry): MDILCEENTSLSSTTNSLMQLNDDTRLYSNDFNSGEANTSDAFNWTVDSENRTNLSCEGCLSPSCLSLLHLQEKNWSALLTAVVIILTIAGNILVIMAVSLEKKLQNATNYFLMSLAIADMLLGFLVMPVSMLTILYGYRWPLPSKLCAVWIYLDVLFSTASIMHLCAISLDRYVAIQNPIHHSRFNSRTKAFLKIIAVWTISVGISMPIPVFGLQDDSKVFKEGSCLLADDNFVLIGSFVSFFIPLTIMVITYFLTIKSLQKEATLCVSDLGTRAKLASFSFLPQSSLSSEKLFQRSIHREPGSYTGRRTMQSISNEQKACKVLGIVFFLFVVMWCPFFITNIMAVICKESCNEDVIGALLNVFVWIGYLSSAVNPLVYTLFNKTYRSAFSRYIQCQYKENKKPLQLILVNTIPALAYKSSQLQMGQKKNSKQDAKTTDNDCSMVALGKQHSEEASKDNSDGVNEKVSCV

SMILES | D2L Agonist % Activation (Aequorin) ([1]; Agonist concentration 10 nM) [%] | D2L Agonist % Activation (Aequorin) ([1]; Agonist concentration 30 nM) [%] | D2L Agonist % Activation (Aequorin) ([1]; Agonist concentration 100 nM) [%] | D2L Agonist % Activation (Aequorin) ([1]; Agonist concentration 300 nM) [%] | D2L Agonist % Activation (Aequorin) ([1]; Agonist concentration 1000 nM) [%] | D2L Agonist % Activation (Aequorin) ([1]; Agonist concentration 3000 nM) [%] | D2L Agonist % Activation (Aequorin) ([1]; Agonist concentration 10000 nM) [%] | D2L Agonist % Activation (Aequorin) ([1]; Agonist concentration 30000 nM) [%] | inhibition at 0.005 µM [1] [%] | inhibition at […] ([1]; Antagonist concentration 15 nM) [%] | inhibition at 0.05 µM [1] [%] | inhibition at […] [1, 4] [%] | inhibition at 0.5 µM [1] [%] | inhibition at […] [1, 5] [%] | inhibition at 5 µM [1] [%] | inhibition at 15 µM [1] [%] | inhibition at 0.005 µM [2] [%] | inhibition at […] ([2]; antagonist concentration 15 nM) [%] | inhibition at 0.05 µM [2] [%] | inhibition at […] [2, 6] [%] | other results
C/C(=C\n1c2c(c3cc(Cl)ccc31)CN(C)CC2)c1ccc(F)cc1 [Compound 83, (E)-8-chloro-5-(2-(4-fluorophenyl)prop-1-enyl)-2,3,4,5-tetrahydro-2-methyl-1H-pyrido[4,3-b]indole] | 2.43 | 0.68 | 1.26 | 0.92 | −0.12 | 0.00 | 6.32 | 84.25 | 93.5 | 96.4 | 96.8 | 96.8 | 96.8 | 96 | 96 | 92.3 | 51.8 | 90 | 104 | 109 | inhibition at 0.5 µM [2]: 118%; inhibition at […] [2, 7]: 113%; inhibition at 5 µM [2]: 111%; inhibition at 15 µM [2]: 105%; inhibition at 0.005 µM ([3]; CHO-K1, Antagonist concentration 5 nM, read-out: 5-HT2A Antagonist % Inhibition (Aequorin)): 85.4%; inhibition at […] ([3]; CHO-K1, Antagonist concentration 15 nM): 96.6%; inhibition at 0.05 µM ([3]; CHO-K1, Antagonist concentration 50 nM, read-out: 5-HT2A Antagonist % Inhibition (Aequorin)): 98.5%; inhibition at […] ([3]; CHO-K1, Antagonist concentration 150 nM): 98.7%; inhibition at 0.5 µM ([3]; CHO-K1, Antagonist concentration 500 nM, read-out: 5-HT2A Antagonist % Inhibition (Aequorin)): 98.8%; inhibition at […] ([3]; CHO-K1, Antagonist concentration 1500 nM): 98.9%; inhibition at 5 µM ([3]; CHO-K1, Antagonist concentration 5000 nM, read-out: 5-HT2A Antagonist % Inhibition (Aequorin)): 97.8%; inhibition at 15 µM ([3]; CHO-K1, Antagonist concentration 15000 nM, read-out: 5-HT2A Antagonist % Inhibition (Aequorin)): 97%
C/C(=C\n1c2c(c3cc(Cl)ccc31)CN(C)CC2)c1ccncc1 [Compound 90, (E)-8-chloro-2,3,4,5-tetrahydro-2-methyl-5-(2-(pyridin-4-yl)prop-1-enyl)-1H-pyrido[4,3-b]indole] | 0.95 | 0.25 | −0.23 | −0.24 | −0.48 | −1.20 | −0.78 | −0.92 | 95.5 | 97.3 | 93.5 | 96.8 | 97.9 | 97.2 | 97.4 | 96.1 | 59 | 101 | 106 | 109 | inhibition at 0.5 µM [2]: 109%; inhibition at […] [2, 7]: 116%; inhibition at 5 µM [2]: 112%; inhibition at 15 µM [2]: 116%; 5-HT2A Agonist % Activation (Aequorin) ([3]; Agonist concentration 10 nM): 0.62%; 5-HT2A Agonist % Activation (Aequorin) ([3]; Agonist concentration 30 nM): 0.26%; 5-HT2A Agonist % Activation (Aequorin) ([3]; Agonist concentration 100 nM): 0.27%; 5-HT2A Agonist % Activation (Aequorin) ([3]; Agonist concentration 300 nM): 0.18%; 5-HT2A Agonist % Activation (Aequorin) ([3]; Agonist concentration 1000 nM): 0.11%; 5-HT2A Agonist % Activation (Aequorin) ([3]; Agonist concentration 3000 nM): 0.04%; 5-HT2A Agonist % Activation (Aequorin) ([3]; Agonist concentration 10000 nM): 0.02%; 5-HT2A Agonist % Activation (Aequorin) ([3]; Agonist concentration 30000 nM): 0.49%; inhibition at 0.005 µM [3, 8]: 73%; inhibition at 0.05 µM [3, 8]: 98.5%; inhibition at 0.5 µM [3, 8]: 98.4%; inhibition at 5 µM [3, 8]: 98.5%; inhibition at 15 µM [3, 8]: 97.6%
